# Values of other authors in patent US20240148709A1, “METHODS OF TREATING EYE PAIN AND EYE DISORDERS” (Aisa Pharma, Inc., priority 2022, published 2024).
# Conditions: oral dosing; cited from earlier work
smiles,measurement,value
CCOC(=O)C1=C(COCCN)NC(C)=C(C(=O)OC)C1c1ccccc1Cl (stereo not shown) [amlodipine],time to achieve maximal plasma concentration (Tmax),10 h
